Assay results taken from patent US20190365784A1, “USE OF BRASSINOSTEROID ANALOGS FOR THE TREATMENT OF DERMAL DISORDERS BY SELECTIVELY MODULATING LIVER X RECEPTORS (LXR) AND DERMAL DISEASE TREATMENT BY BRASSINOSTEROID ANALOGS ACTING AS SELECTIVE LIVER X RECEPTOR (LXR) MODULATORS” (CONSEJO NACIONAL DE INVESTIGACIONES CIENTÍFICAS Y TÉCNICAS …, priority 2015, published 2019).

Experiments:
LXR-alpha = target: T1, LXR-alpha (Homo sapiens, UniProt Q13133); test: LXR-alpha/RXR LRE-luciferase reporter in transfected HEK293T cells; assay type: cell-based; conditions: 10 uM, 18 h
T1 sequence (Q13133 1-447): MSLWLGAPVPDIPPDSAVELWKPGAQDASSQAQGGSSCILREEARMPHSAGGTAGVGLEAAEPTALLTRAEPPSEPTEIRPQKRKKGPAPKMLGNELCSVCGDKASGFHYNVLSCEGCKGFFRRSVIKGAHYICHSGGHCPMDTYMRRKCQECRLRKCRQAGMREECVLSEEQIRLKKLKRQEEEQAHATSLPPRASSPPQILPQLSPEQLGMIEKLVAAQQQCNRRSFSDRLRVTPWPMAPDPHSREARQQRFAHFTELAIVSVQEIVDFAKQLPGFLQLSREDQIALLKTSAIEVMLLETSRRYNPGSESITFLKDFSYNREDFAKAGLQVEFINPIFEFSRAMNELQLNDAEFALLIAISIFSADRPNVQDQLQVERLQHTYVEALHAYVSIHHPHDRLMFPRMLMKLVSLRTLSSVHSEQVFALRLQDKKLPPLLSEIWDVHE
T1 sequence (P19793 1-462 partner): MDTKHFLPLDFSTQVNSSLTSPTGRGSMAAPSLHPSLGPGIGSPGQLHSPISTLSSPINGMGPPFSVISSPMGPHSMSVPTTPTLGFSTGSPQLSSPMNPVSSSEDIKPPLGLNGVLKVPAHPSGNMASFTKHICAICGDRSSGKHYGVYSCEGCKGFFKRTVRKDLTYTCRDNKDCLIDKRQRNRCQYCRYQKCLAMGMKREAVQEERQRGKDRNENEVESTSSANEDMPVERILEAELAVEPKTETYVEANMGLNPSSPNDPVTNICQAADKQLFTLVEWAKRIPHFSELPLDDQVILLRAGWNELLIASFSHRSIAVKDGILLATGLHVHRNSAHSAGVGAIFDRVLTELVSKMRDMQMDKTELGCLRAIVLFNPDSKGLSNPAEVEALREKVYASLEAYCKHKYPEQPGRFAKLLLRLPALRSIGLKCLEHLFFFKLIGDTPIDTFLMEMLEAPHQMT
Description: Since we had previously shown that the beneficial effects of the compounds of the invention are independent of glucocorticoid receptor (GR) activation, we set forth to investigate if they might exert their actions through activation of liver X receptors (LXR). For this purpose we used cultured cells transiently transfected with LXR-alpha, the retinoid X receptor (RXR) and a LXR response element-luciferase reporter (LRE-LUC). A. Human embryonic kidney cells (HEK293T; 5×10^5 cells/well) were cultured in DMEM medium supplemented with 10% (v/v) fetal bovine serum, 100 ug/ml of streptomycin, 100 IU/ml of penicillin and 2 mM glutamine. For the transient transfections, the cell cultures were added with plasmids carrying LXR-alpha (pLXR-alpha; 0.6 ug), the retinoid X receptor (pRXR; 0.2 ug), a LXR response element-luciferase reporter (pRE-LUC; 0.7 ug) and beta-galactosidase gene (pRSV-LacZ; 0.6 ug) as a transfection control, using Lipofectamine 2000 (Invitrogen). […] Compounds III to VI are […] analogs bearing a fluorine atom at C-6. To assess LXR-alpha activation, at the end of the incubation period luciferase activity was measured by use of a luciferase assay system (Promega). The results of three independent assays, carried out in duplicate for each condition, are reported.

[1] = Plasma total cholesterol, HDL-cholesterol and triglyceride in C57BI mice after 5 days i.p. treatment; assay type: in vivo; conditions: male C57BI mice; Compound I 10 mg/kg i.p. daily for 5 days
Description: Administration of synthetic LXR agonists such as T0901317 induces a marked increment of liver lipogenesis that leads to hepatic steatosis and plasma hypertriglyceridemia.
Male C57BI mice received daily for 5 days intraperitoneal injections containing either 10 mg Compound I/kg, or 5 mg T0901317/kg, or vehicle [90% (v/v) DMSO in apyrogenic sterile water]. On the sixth day of the assay, the animals were fasted for 4 h before decapitation. Blood plasma was obtained for the determination of total cholesterol, HDL-cholesterol and triglyceride contents. The livers were resected, and their weights and colors used as gross markers of increased liver triglyceride contents.

granuloma formation = test: Granuloma formation in a mouse model of subchronic inflammation; assay type: in vivo; conditions: mice; 10 mg/kg body weight; previously showed, data not shown
SRBEP-1 = SRBEP-1 expression in HepG2 cells (real time PCR); assay type: cell-based, human; conditions: 1 uM, 3 uM and 10 uM, 6 h
Description: The cells were incubated for 6 h in the presence of either Compound I (10 uM), or Compound II (10 uM), or the commercial LXR agonist GW3965 (1 uM), or Vehicle [DMSO, 0.1% (v/v)]). To obtain RNA, at the end of the incubation the cells were collected by centrifugation at 1,000 rpm for 2 min, washed with phosphate buffered saline, and lysed in 300 ul TRIZOL (Invitrogen). RNA samples were suspended in ul of RNAse free water, and their concentration determined (NanoDrop spectrophotometer). The ratio of the absorbance at 260 and 280 nm was used to assess RNA purity of an RNA preparation, with a value of 1.8-2.0 indicating pure RNA. To obtain cDNA, 1 ug of total RNA was denatured by incubating for 5 min at 70° C., before the addition of a mixture containing 0.5 ug oligo-dT primers and 25 ng/ml of random primers (Invitrogen), 1.0 mM dNTPs (Invitrogen), and 200 U M-MLV reverse transcriptase (Promega); after this the mixture was retrotranscribed at 37° C. for 60 min, followed by an incubation at 95° C. for 5 min to inactivate the enzyme. For the real time PCR amplification (Stratagene Thermal Cycler), cDNA samples were diluted 1/5 to 1/10 depending on the target amplification product. Calibration curves were obtained by use of eight successive 1:2 sample dilutions. Amplifications were carried out in a 25 ul final volume (5 ul cDNA sample plus 20 ul of reaction mixture) in the presence of either 3, 4 or 5 mM MgCl2 (depending on the amplified sequence), 0.25 mM dNTPs (Invitrogen), 1.25 U Taq polymerase (Invitrogen), 1 μM of the specific primers according to the target amplification sequence, and 0.025 μl SYBR Green (Roche). Melting curves were used to assess the specificity of the amplification products. […]

| SMILES | induction of LXR-alpha driven gene expression compared with GW3965 (1 uM) (LXR-alpha) | hypertriglyceridemia [1] | granuloma formation (granuloma formation) | induction of SRBEP-1 expression (SRBEP-1) |
| --- | --- | --- | --- | --- |
| CC[C@@H](C(C)C)[C@H](O)[C@@H](O)[C@@H](C)[C@H]1CC[C@H]2[C@@H]3CCC4=CC(=O)CC[C@]4(C)[C@H]3CC[C@]12C [Compound I, (22S,23S)-22,23-dihydroxystigmast-4-en-3-one] | within the same range as that observed for GW3965 | no signs | reduces granuloma formation | did not induce |
| CC[C@@H](C(C)C)[C@H](O)[C@@H](O)[C@@H](C)[C@H]1CC[C@H]2[C@@H]3CCC4=CC(=O)C=C[C@]4(C)[C@H]3CC[C@]12C [Compound II, (22S,23S)-22,23-dihydroxystigmasta-1,4-dien-3-one] | within the same range as that observed for GW3965 |  |  | did not induce |
